# From EP4603105A1, “PHARMACEUTICAL COMPOSITION CONTAINING CYCLIC COMPOUND HAVING SELECTIVE KRAS INHIBITORY EFFECT AGAINST HRAS AND NRAS” (CHUGAI SEIYAKU KABUSHIKI KAISHA, priority 2022, dated 2024)
# *1 amine or outer side, *2 acyl side, *3 side chain or, on linkers, in order; H or OH if unused. Where a SMILES comes first, the peptide text is derived from it. Bridges are numbered along the chain shown (N, C = ends). [ ]: non-standard residue; d: D form. The star is where a group is joined. hPhe(3,5-F2-4-CF3) = N[C@@H](CCc1cc(F)c(C(F)(F)F)c(F)c1)C(=O)O; X25 = O=C([C@H](Cc1ccc(C(F)(F)F)cc1)N(CCC(F)(F)F)[*:1])[*:2]; hPhe(3-Cl-4-CF3) = N[C@@H](CCc1ccc(C(F)(F)F)c(Cl)c1)C(=O)O; NPrPhe(4-CF3) = CCCN[C@@H](Cc1ccc(C(F)(F)F)cc1)C(=O)O; NMeGly(cPent) = CN[C@H](C(=O)O)C1CCCC1; NMeD = CN[C@@H](CC(=O)O)C(=O)O; Ac4c(3-oxa) = NC1(C(=O)O)COC1; NMeL = CN[C@@H](CC(C)C)C(=O)O; Iva = CC[C@](C)(N)C(=O)O; Morpholide = C1CN(*)CCO1; NMeA = CN[C@@H](C)C(=O)O; Ac5c = NC1(C(=O)O)CCCC1; Aze = O=C(O)[C@@H]1CCN1; Ac4c = NC1(C(=O)O)CCC1; Sar = CNCC(=O)O
# Assays:
# [1] = test system: human lung cancer strain NCI-H441; assay type: cell-based
# How it was run: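 Readout: […] after the ATP-based reagent. Compound: serial dilutions in dimethyl sulfoxide.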
# [2] = target: GDP-bound NRAS wild-type protein (Homo sapiens, UniProt P01111); assay: Binding to NRAS by surface plasmon resonance (SPR), KD and KD ratio to KRAS
# How it was run: (§1)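 GDP-bound biotin-Avi RAS captured at ~100–300 RU, 30°C, pH 7.4 HBS containing 10 µM GDP, 10 mM MgCl2, 1 mM DTT, 0.01% Tween 20 and 4% DMSO. KD by 1:1 fitting.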
# HRAS wild-type protein = HRAS wild-type protein (Homo sapiens, UniProt P01112); assay: Binding to HRAS by surface plasmon resonance (SPR), KD and KD ratio to KRAS
# How it was run: as §1
# [3] = ratio of KD value for GDP-bound NRAS wild-type protein to KD value for KRAS (SPR)
# [4] = ratio of KD value for HRAS wild-type protein to KD value for KRAS (SPR)
# [5] = ratio of KD for GDP-bound NRAS wild-type protein to KD for KRAS
# [6] = ratio of KD for HRAS wild-type protein to KD for KRAS
# [7] = ratio of the KD value with respect to GDP-bound NRAS wild-type protein to the KD value with respect to KRAS
# [8] = ratio of the KD value with respect to HRAS wild-type protein to the KD value with respect to KRAS
# Sequence of HRAS wild-type protein (P01112 whole entry): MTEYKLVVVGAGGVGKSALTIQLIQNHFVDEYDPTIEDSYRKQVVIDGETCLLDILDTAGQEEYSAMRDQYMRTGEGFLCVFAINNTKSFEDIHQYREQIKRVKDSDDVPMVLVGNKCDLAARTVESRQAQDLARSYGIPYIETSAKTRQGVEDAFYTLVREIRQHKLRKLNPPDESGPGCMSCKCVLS
# Sequence of GDP-bound NRAS wild-type protein (P01111 whole entry): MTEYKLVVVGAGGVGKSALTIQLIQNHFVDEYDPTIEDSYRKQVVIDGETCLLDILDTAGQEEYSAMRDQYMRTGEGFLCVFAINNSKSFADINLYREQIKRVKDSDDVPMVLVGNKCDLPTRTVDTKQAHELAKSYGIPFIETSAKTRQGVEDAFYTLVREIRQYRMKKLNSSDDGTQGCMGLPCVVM
SMILES,IC50 [1],"NRAS /KRAS [2, 3]",HRAS /KRAS (HRAS wild-type protein; [4]),"NRAS /KRAS [2, 5]",HRAS /KRAS (HRAS wild-type protein; [6]),"NRAS /KRAS [2, 7]",HRAS /KRAS (HRAS wild-type protein; [8])
CCO[C@@H]1C[C@H]2C(=O)NC3(CC(C)(C)C3)C(=O)N(C)[C@@H](C(CC)CC)C(=O)N3CCC[C@@H]3CC(=O)N(C)[C@@H](CC3CC3)C(=O)N[C@@H]([C@@H](C)CC)C(=O)N(C)CC(=O)N(C)[C@H]3C/C=C\CCN(C3=O)[C@@H](Cc3ccc(C(F)(F)F)cc3)C(=O)N(C)CC(=O)N[C@@H](CCc3cc(F)c(C(F)(F)F)c(F)c3)C(=O)N2C1 [PP1610],0.0868 µM,A (a compound having 10 or more and less than 20 is denoted as A),A (a compound having 10 or more and less than 20 is denoted as A),,,,
CCCO[C@@H]1C[C@H]2C(=O)NC3(CC(C)(C)C3)C(=O)N(C)[C@@H](C(CC)CC)C(=O)N(C)[C@H](C(=O)N(C)C)CC(=O)N(C)[C@H]3CCCCc4ccc(cc4)C[C@@H](C(=O)N(C)CC(=O)N[C@@H](CCc4ccc(C(F)(F)F)c(OC)c4)C(=O)N2C1)N1CC/C=C\C[C@@H](C1=O)N(C)C(=O)CN(C)C(=O)[C@H]([C@@H](C)CC)NC3=O [PP3038],0.0031 µM,,,A (a compound having 10 or more and less than 20 is denoted as A),A (a compound having 10 or more and less than 20 is denoted as A),,
CCC[C@H]1C(=O)N[C@@H]([C@@H](C)CC)C(=O)N(C)CC(=O)N(C)[C@H]2C/C=C\CCN(C2=O)[C@@H](Cc2ccc(C(F)(F)F)cc2)C(=O)N(C)CC(=O)N[C@@H](CCc2cc(F)c(C(F)(F)F)c(F)c2)C(=O)N2C[C@H](OCC)C[C@H]2C(=O)NC2(CC(C)(C)C2)C(=O)N(C)[C@@H](C2CCCC2)C(=O)N(C)[C@H](C(=O)N2CCC2)CC(=O)N1C [PP1943],0.0092 µM,,,,,A (a compound having 10 or more and less than 20 is denoted as A),B (a compound having 3 or more and less than 10 is denoted as B)
CCOC[C@H]1C(=O)N[C@@H]([C@@H](C)CC)C(=O)N(C)CC(=O)N(C)[C@H]2C/C=C\CCN(C2=O)[C@@H](CC2CCC(F)(F)CC2)C(=O)N(C)CC(=O)N[C@@H](CCc2ccc(C(F)(F)F)c(OC)c2)C(=O)N2C[C@H](OCC)C[C@H]2C(=O)N(C)C2(CCC2)C(=O)N(C)[C@@H](C(CC)CC)C(=O)N(C)[C@H](C(=O)N(C)C)CC(=O)N1C [PP2347],0.143 µM,,,,,A (a compound having 10 or more and less than 20 is denoted as A),A (a compound having 10 or more and less than 20 is denoted as A)
CC[C@H](C)[C@@H]1NC(=O)[C@H](CC(C)C)N(C)C(=O)C[C@@H](C(=O)N2CCOCC2)N(C)C(=O)[C@H](C2CCCC2)N(C)C(=O)C2(CCCC2)NC(=O)[C@@H]2CCCN2C(=O)[C@H](CCc2cc(F)c(C(F)(F)F)c(F)c2)NC(=O)CN(C)C(=O)[C@H](Cc2ccc(C(F)(F)F)cc2)N2CCCCC[C@@H](C2=O)N(C)C(=O)CN(C)C1=O [PP0490],0.0505 µM,,,,,B (a compound having 3 or more and less than 10 is denoted as B),B (a compound having 3 or more and less than 10 is denoted as B)
CC[C@H](C)[C@@H]1NC(=O)[C@H](CC(C)C)N(C)C(=O)C[C@@H](C(=O)N2CCOCC2)N(C)C(=O)[C@H](C2CCCC2)N(C)C(=O)C2(CCCC2)NC(=O)[C@@H]2CCCN2C(=O)[C@H](CCc2ccc(C(F)(F)F)c(Cl)c2)NC(=O)CN(C)C(=O)[C@H](Cc2ccc(C(F)(F)F)cc2)N(CCC(F)(F)F)C(=O)[C@@H]2CCN2C(=O)[C@H](C)N(C)C1=O [PP0117] ([NMeL]I[NMeA][Aze][X25][Sar][hPhe(3-Cl-4-CF3)]P[Ac5c][NMeGly(cPent)][NMeD]-Morpholide; lactam N-11),0.0092 µM,,,B (a compound having 3 or more and less than 10 is denoted as B),B (a compound having 3 or more and less than 10 is denoted as B),,
CCO[C@@H]1C[C@H]2C(=O)NC3(CCC3)C(=O)N(C)[C@@H](C3CCCC3)C(=O)N(C)[C@H](C(=O)N(C)C)CC(=O)N(C)[C@@H](Cc3ccc(F)cc3)C(=O)N[C@@H]([C@@H](C)CC)C(=O)N(C)CC(=O)N(C)[C@H]3CCCCCN(C3=O)[C@@H](Cc3ccc(C(F)(F)F)cc3)C(=O)N(C)CC(=O)N[C@@H](CCc3cc(F)c(C(F)(F)F)c(F)c3)C(=O)N2C1 [PP0936],0.0424 µM,,,B (a compound having 3 or more and less than 10 is denoted as B),B (a compound having 3 or more and less than 10 is denoted as B),,
"CCCN1C(=O)[C@@H]2CCN2C(=O)CN(C)C(=O)[C@H]([C@@H](C)CC)NC(=O)[C@H](CC(C)C)N(C)C(=O)C[C@@H](C(=O)N2CCOCC2)N(C)C(=O)[C@H](C2CCCC2)N(C)C(=O)[C@](C)(CC)NC(=O)[C@@H]2CCCN2C(=O)[C@H](CCc2cc(F)c(C(F)(F)F)c(F)c2)NC(=O)CN(C)C(=O)[C@@H]1Cc1ccc(C(F)(F)F)cc1 [PP0790] ([NMeL]I[Sar][Aze][NPrPhe(4-CF3)][Sar][hPhe(3,5-F2-4-CF3)]P[Iva][NMeGly(cPent)][NMeD]-Morpholide; lactam N-11)",0.0288 µM,,,C (A compound having a KD ratio of 0.1 or more and less than 3 is denoted as C),B (a compound having 3 or more and less than 10 is denoted as B),,
CCCOC[C@H]1C(=O)N[C@@H]([C@@H](C)CC)C(=O)N(C)CC(=O)N(C)[C@H]2C/C=C\CCN(C2=O)[C@@H](Cc2ccc(C(F)(F)F)cc2)C(=O)N(C)CC(=O)N[C@@H](CCc2cc(F)c(Cl)c(F)c2)C(=O)N2C[C@H](OCC)C[C@H]2C(=O)NC2(CC(C)(C)C2)C(=O)N(C)[C@@H](C2CCCC2)C(=O)N(C)[C@H](C(=O)N(C)C)CC(=O)N1C [PP1764],0.0111 µM,AA (a compound having 20 or more is denoted as AA),A (a compound having 10 or more and less than 20 is denoted as A),,,,
CCO[C@@H]1C[C@H]2C(=O)NC3(CCC3)C(=O)N(C)[C@@H](C3CCCC3)C(=O)N(CCC3CCCC3)[C@H](C(=O)N3CCOCC3)CC(=O)N(C)[C@@H](CC)C(=O)N[C@@H]([C@@H](C)CC)C(=O)N(C)CC(=O)N(C)[C@H]3C/C=C\CCN(C3=O)[C@@H](Cc3ccc(C(F)(F)F)cc3)C(=O)N(C)CC(=O)N[C@@H](CCc3cc(F)c(C(F)(F)F)c(F)c3)C(=O)N2C1 [PP0981],0.797 µM,,,AA (a compound having 20 or more is denoted as AA),A (a compound having 10 or more and less than 20 is denoted as A),,
CCCN1C(=O)[C@@H]2CCN2C(=O)[C@H](C)N(C)C(=O)[C@H]([C@@H](C)CC)NC(=O)[C@H](CC(C)C)N(C)C(=O)C[C@@H](C(=O)N(C)C)N(C)C(=O)[C@H](C2CCCC2)N(C)C(=O)C2(CCC2)NC(=O)[C@@H]2CCCN2C(=O)[C@H](CCc2ccc(C(F)(F)F)c(Cl)c2)NC(=O)CN(C)C(=O)[C@@H]1Cc1ccc(C(F)(F)F)cc1 [PP0435] ([NMeL]I[NMeA][Aze][NPrPhe(4-CF3)][Sar][hPhe(3-Cl-4-CF3)]P[Ac4c][NMeGly(cPent)][NMeD]-NMe2; lactam N-11),0.0026 µM,,,,,C (A compound having a KD ratio of 0.1 or more and less than 3 is denoted as C),C (A compound having a KD ratio of 0.1 or more and less than 3 is denoted as C)
"CCCN1C(=O)CN(C)C(=O)CN(C)C(=O)[C@H]([C@@H](C)CC)NC(=O)[C@H](CC(C)C)N(C)C(=O)C[C@@H](C(=O)N2CCOCC2)N(C)C(=O)[C@H](C2CCCC2)N(C)C(=O)C2(COC2)NC(=O)[C@@H]2CCCN2C(=O)[C@H](CCc2cc(F)c(C(F)(F)F)c(F)c2)NC(=O)CN(C)C(=O)[C@@H]1Cc1ccc(C(F)(F)F)cc1 [PP0765] ([NMeL]I[Sar][Sar][NPrPhe(4-CF3)][Sar][hPhe(3,5-F2-4-CF3)]P[Ac4c(3-oxa)][NMeGly(cPent)][NMeD]-Morpholide; lactam N-11)",0.123 µM,,,B (a compound having 3 or more and less than 10 is denoted as B),C (A compound having a KD ratio of 0.1 or more and less than 3 is denoted as C),,
C#CC[C@H]1C(=O)N[C@@H]([C@@H](C)CC)C(=O)N(C)CC(=O)N(C)[C@H]2C/C=C\CCN(C2=O)[C@@H](Cc2ccc(C(F)(F)F)cc2)C(=O)N(C)CC(=O)N[C@@H](CCc2cc(F)c(C(F)(F)F)c(F)c2)C(=O)N2C[C@H](OCC)C[C@H]2C(=O)NC2(CC(C)(C)C2)C(=O)N(C)[C@@H](C2CCCC2)C(=O)N(C)[C@H](C(=O)N(C)CC)CC(=O)N1C [PP2073],0.0035 µM,,,,,A (a compound having 10 or more and less than 20 is denoted as A),A (a compound having 10 or more and less than 20 is denoted as A)
CC[C@H](C)[C@@H]1NC(=O)[C@H](CC)N(C)C(=O)C[C@@H](C(=O)N(C)C)N(CC)C(=O)[C@H](C2CCCC2)N(C)C(=O)C2(CCC2)NC(=O)[C@@H]2C[C@H](N3CCC(F)(F)CC3)CN2C(=O)[C@H](CCc2cc(F)c(C(F)(F)F)c(F)c2)NC(=O)CN(C)C(=O)[C@H](Cc2ccc(C(F)(F)F)cc2)N2CCCC[C@@H](C2=O)N(C)C(=O)CN(C)C1=O [PP0659],0.184 µM,,,,,B (a compound having 3 or more and less than 10 is denoted as B),B (a compound having 3 or more and less than 10 is denoted as B)
CCC[C@H]1C(=O)N[C@@H]([C@@H](C)CC)C(=O)N(C)CC(=O)N(C)[C@H]2C/C=C\CCN(C2=O)[C@@H](Cc2ccc(C(F)(F)F)cc2)C(=O)N(C)CC(=O)N[C@@H](CCc2ccc(C(F)(F)F)c(OC)c2)C(=O)N2CCOC[C@H]2C(=O)NC2(CC(C)(C)C2)C(=O)N(C)[C@@H](C(CC)CC)C(=O)N(C)[C@H](C(=O)N(C)C)CC(=O)N1C [PP2935],0.0505 µM,,,A (a compound having 10 or more and less than 20 is denoted as A),A (a compound having 10 or more and less than 20 is denoted as A),,
